Reference: patent publication US6747050B1, “Isoxazoline derivative and a process for the preparation thereof” (LG Chem Investment Ltd., priority 1999, dated 2004)
Values belong to the compound of their own block, whether it stands above or below them.

What was measured:
[1] = test system: W138 cells (human embryonal lung fibroblast); assay: Protection from IFNγ and anti-Fas antibody-induced apoptosis (XTT); type: cell-based; conditions: IFNγ 200 units/ml + anti-Fas antibody 40 ng/well; for cell viability (control without Fas antibody = 100%): 50 μM, 50 µM; for viability at 0.4 µM / viability at 2 µM / viability at 10 µM / viability at 50 µM: Homo sapiens, read-out: cell viability (control without Fas antibody = 100%); for viability at 0.4 µM: W138, 0.4 μM; for viability at 2 µM: W138, 2 μM; for viability at 10 µM: W138, 10 μM; for viability at 50 µM: W138, 50 μM
Protocol: W138 cells (human embryonal lung fibroblast) were grown in a medium containing DMEM-10% FBS within, 10 cm diameter dishes until reaching at confluency. The cells were seeded into a 24-well plate at day 1 and incubated overnight while the volume of medium was maintained to 400 μl. Cells were treated with 200 units/ml of IFNγ at day 2 and incubated over 12 hrs or more. At day 3, each 100 μl of test compound was added to the cells after diluting the 10 mM stock compound in DMSO to final concentrations of 50, 10, 2, and 0.4 μM, respectively. The cells were incubated for 2 hrs in order for allowing the compound to enter into the cells and then treated with 40 ng/well of anti-Fas antibody(apoptosis was induced 2 hrs after antibody was treated and the incubation was continued overnight). The control was not treated with Fas antibody. […] After coloring, 100-200 μl of the supernatant was transferred to a 96-well plate and the absorbance at 490 nm was read with ELISA plate reader. For the blank, XTT solution was added to the well continued the medium only. Plotting was determined by comparing with the control group (100% when Fas antibody was not treated).

caspase-1 = molecular target: T1, caspase-1 (Homo sapiens, UniProt P29466); assay: Recombinant caspase enzyme inhibition, fluorogenic substrate Ac-YVAD-AMC; type: biochemical; conditions: Reversible Inhibitor
T1 construct: made in house; host or cells: transformed bacterium (pET vector)
T1 sequence (P29466 120-297 limits assumed): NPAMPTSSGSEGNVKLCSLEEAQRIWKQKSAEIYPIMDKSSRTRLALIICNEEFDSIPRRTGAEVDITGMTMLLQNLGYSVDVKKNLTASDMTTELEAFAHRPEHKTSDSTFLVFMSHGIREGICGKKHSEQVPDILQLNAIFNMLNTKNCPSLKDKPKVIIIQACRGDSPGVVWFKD
T1 sequence (P29466 317-404 limits assumed): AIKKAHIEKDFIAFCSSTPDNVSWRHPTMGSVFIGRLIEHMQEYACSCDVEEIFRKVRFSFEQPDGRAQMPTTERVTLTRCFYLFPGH
Protocol: In the present experiment recombinant caspases were purified from a transformed bacterium after human caspase genes were cloned into the expression vector pET, and then used in the experiment (Thornberry, N. A. et al. Nature, 1992, 356, 768. Thornberry, N. A. Methods in Enzymology, 1994, 615.).
Enzymatic activity was measured by a known procedure (Walker N. P. C. et al., Cell 1994, 78, 343). Briefly, 10 ng of recombinant protein was mixed with 50 mM Tris(pH 7.0), 1 mM DTT, 0.5 mM EDTA, 10% Glycerol buffer containing 1˜100 μM of enzyme substrate, Ac-YVAD-AMC or Ac-DEVD-AMC and then the changes by isolated AMC at 37° C. were recorded. The inhibitory activity for caspases was calculated from the early enzyme reaction rate by measuring the changes with fluorescence excited at […] and emitted at 460 nm (Range; Ki<100 nM).

[2] = test system: caspase-3-like activity (Ac-DEVD-pNA); assay: Caspase-3-like activity in TNFα/ActD-treated primary rat hepatocytes; type: cell-based; conditions: 100 μM, 8 hrs
Protocol: Primary rat hepatocytes were isolated and purified from male Sprague-Dawley rats using a collagenase digestion method. The hepatocytes were purified over 30% Percoll gradient by centrifugation at 1,000×g for 10 min. at 4° C. […] The cells were plated on collagen-coated tissue culture plates at a density of 2×10^5 cells/well in 12-well plates for cell viability analysis or 5×10^6 cells/100 mm dish for enzyme assays. After 18 hrs preculture, the cells were treated with 2,000 units/ml TNFα and 0.2 μg/ml Actinomycin (ActD). Caspase activity and cell viability was determined by colorimetry using a caspase substrate Ac-DEVD-pNA and crystal violet staining method at 8 hrs and 12 hrs, respectively.

Structure (SMILES): CC(=O)[C@H](CC(=O)O)NC(=O)C1(COc2ccccc2)CC([C@@H](NC(=O)c2ccc3ccccc3n2)C(C)C)=NO1 (mixture of isomers) [Compound 22, (3S)-3-{3-[(1S)-1-(Quinoline-2-yl-carbonylamino)-2-methyl-propyl]-5-phenoxymethyl-4,5-dihydro-isoxazole-5-carbonylamino}-4-keto-pentanoic Acid]
cell viability (control without Fas antibody = 100%) [1]: 78.29% | viability at 0.4 µM [1]: 14.4% | viability at 2 µM [1]: 18.3% | viability at 10 µM [1]: 35.4% | viability at 50 µM [1]: 78%

Structure (SMILES): CC1(C(=O)N[C@@H](CC(=O)O)C(=O)COc2ccccc2)CC([C@H](CCC(=O)O)NC(=O)CCC(=O)O)=NO1 (mixture of isomers) [Compound 46, (3S)-3-{3-[(1S)-1-(Succinoylamino)-3-carboxy-propyl]-5-methyl-4,5-dihydro-isoxazole-5-carbonylamino}-4-keto-5-phenoxy-pentanoic Acid]
Ki (caspase-1): 29.1 nM

Structure (SMILES): CC(=O)N[C@@H](CC(=O)O)C(=O)N[C@@H](CCC(=O)O)C(=O)N[C@H](C(=O)N[C@H](C=O)CC(=O)O)C(C)C [Ac-DEVD-CHO]
caspase-3-like activity increased by TNFα/ActD (FIG. 15A) [2]: not different

Structure (SMILES): CC(C)[C@H](NC(=O)c1ccc2ccccc2c1)C1=NOC(Cc2ccccc2)(C(=O)N[C@@H](CC(=O)O)C(=O)COC(=O)c2c(Cl)cccc2Cl)C1 (stereo partly drawn) [Compound 28, (3S)-3-{3-[(1S)-1-(Naphthalene-2-carbonylamino)-2-methyl-propyl]-5-phenylmethyl-4,5-dihydro-isoxazole-5-carbonylamino}-4-keto-5-(2,6-dichlorobenzoyloxy)-pentanoic Acid]
cell viability (control without Fas antibody = 100%) [1]: 90.39% | viability at 0.4 µM [1]: 14.7% | viability at 2 µM [1]: 17.3% | viability at 10 µM [1]: 82.4% | viability at 50 µM [1]: 90%

Structure (SMILES): CC(C)[C@H](NC(=O)c1ccc2ccccc2c1)C1=NOC(C(=O)N[C@@H](CC(=O)O)C(=O)COc2ccc3ccccc3c2)C1 (stereo partly drawn) [Compound 29, (3S)-3-{3-[(1S)-1-(Naphthalene-2-carbonylamino)-2-methyl-propyl]-4,5-dihydro-isoxazole-5-carbonylamino}-4-keto-5-(2-naphthyloxy)-pentanoic Acid]
Ki (caspase-1): 0.324 nM

Structure (SMILES): CC(C)[C@H](NC(=O)c1ccc2ccccc2c1)C1=NOC(C(=O)N[C@@H](CC(=O)O)C(=O)COc2ccccc2)C1 (stereo partly drawn) [Compound 30, (3S)-3-{3-[2-Methyl-(1S)-1-(2-naphthalenecarbonylamino)-propyl]-4,5-dihydro-isoxazole-5-carbonylamino}-4-keto-5-phenoxy-pentanoic Acid]
Ki (caspase-1): 19.1 nM

Structure (SMILES): CC(C)[C@H](NC(=O)CCC(=O)O)C1=NOC(C)(C(=O)N[C@@H](CC(=O)O)C(=O)CN2CCCC2)C1 (stereo partly drawn) [Compound 78, (3S)-3-{3-[2-methyl-(1S)-1-(succinoylamino)-propyl]-5-methyl-4,5-dihydro-isoxazole-5-cabonylamino}-4-keto-5-(N-pyrrolidine)-pentanoic acid]
Ki (caspase-1): 63900 nM

More lines, now with the values ahead:

Ki (caspase-1): 177 nM
Structure (SMILES): CC(C)[C@H](NC(=O)CCC(=O)O)C1=NOC(C)(C(=O)N[C@@H](CC(=O)O)C(=O)COc2ccccc2)C1 (mixture of isomers) [Compound 47, (3S)-3-{3-[2-Methyl-(1S)-1-(succinoylamino)-propyl]-5-methyl-4,5-dihydro-isoxazole-5-carbonylamino}-4-keto-5-phenoxy-pentanoic Acid]

Ki (caspase-1): 969 nM
Structure (SMILES): CCCC1(C(=O)N[C@@H](CC(=O)O)C(=O)COc2ccccc2)CC([C@@H](NC(=O)CCC(=O)O)C(C)C)=NO1 (mixture of isomers) [Compound 83, (3S)-3-{3-[2-Methyl-(1S)-1-(succinoylamino)-propyl]-5-propyl-4,5-dihydro-isoxazole-5-carbonylamino}-4-keto-5-phenoxy-pentanoic Acid]

Ki (caspase-1): 26900 nM
Structure (SMILES): CC(C)[C@H](NC(=O)CCC(=O)O)C1=NOC(C)(C(=O)N[C@@H](CC(=O)O)C(=O)COc2ccc3ccccc3c2)C1 (single isomer, unassigned) [Compound 81]

Ki (caspase-1): 530 nM
Structure (SMILES): CC(C)[C@H](NC(=O)CCC(=O)O)C1=NOC(C)(C(=O)N[C@@H](CC(=O)O)C(=O)COc2ccc3ccccc3c2)C1 (single isomer, unassigned) [Compound 82]

Ki (caspase-1): 1.51 nM
Structure (SMILES): CC(C)[C@H](NC(=O)c1cccc2ccccc12)C1=NOC(Cc2ccccc2)(C(=O)N[C@@H](CC(=O)O)C(=O)CN2CCCCC2)C1 (stereo partly drawn) [Compound 48, (3S)-3-{3-[2-Methyl-(1S)-1-(1-naphtalenycarbonylamino)-propyl]-5-phenylmethyl-4,5-dihydro-isoxazole-5-carbonylamino}-4-keto-5-(1-piperidinyl)-pentanoic Acid]
